Consider three compounds from patent publication US4877881A, “Process of preparing pyrazoles, isoxazoles and analogs thereof having activity as 5-lipoxygenase inhibitors” (Warner-Lambert Company, priority 1988, dated 1989).

One experiment has as its target T1, cyclooxygenase (Bos taurus, UniProt O62664).
T1 construct: The assay consists of incubating 2 mg bovine seminal vesicle powder; from tissue; host or cells: bovine seminal vesicle powder
T1 sequence (O62664 25-600): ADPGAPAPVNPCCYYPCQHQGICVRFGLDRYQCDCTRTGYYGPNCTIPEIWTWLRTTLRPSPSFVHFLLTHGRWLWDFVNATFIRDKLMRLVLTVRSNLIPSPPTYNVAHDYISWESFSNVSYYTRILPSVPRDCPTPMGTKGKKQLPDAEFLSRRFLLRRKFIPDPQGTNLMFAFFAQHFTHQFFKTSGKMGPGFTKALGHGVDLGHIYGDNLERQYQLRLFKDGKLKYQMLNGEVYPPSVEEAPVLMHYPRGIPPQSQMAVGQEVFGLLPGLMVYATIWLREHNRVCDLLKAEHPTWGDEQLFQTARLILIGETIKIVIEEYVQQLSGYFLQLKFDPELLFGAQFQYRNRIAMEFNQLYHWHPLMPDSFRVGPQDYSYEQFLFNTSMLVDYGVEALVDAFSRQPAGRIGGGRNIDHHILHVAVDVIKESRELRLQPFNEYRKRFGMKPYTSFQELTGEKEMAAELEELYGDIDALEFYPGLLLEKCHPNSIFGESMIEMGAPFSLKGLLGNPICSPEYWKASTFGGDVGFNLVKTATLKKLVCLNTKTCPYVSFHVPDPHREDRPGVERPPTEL
As to the kind of experiment: Cyclooxygenase Enzyme Assay, bovine seminal vesicle (BSV), PGE2 formation. Particulars: bovine seminal vesicle powder; 100 μM arachidonic acid, 20 minutes. It counts as biochemical. The method, then: Cyclooxygenase Enzyme Assay
Additionally, inhibition of cyclooxygenase is considered a measure of relevance to the pathophysiology of the above noted diseases.
The assay consists of incubating 2 mg bovine seminal vesicle powder with 2 mM epinephrine, 2.5 mM reduced glutathione, 100 μM arachidonic acid, and the test agent for 20 minutes. The reaction mixture is acidified and extracted with ethyl acetate (3×1.0 ml) and the pooled extract is evaporated to dryness using a Speed Vac Concentrator or under a stream of nitrogen. The residue was dissolved in ethanol.

The next experiment addresses T2, 5-lipoxygenase (Rattus norvegicus, UniProt P12527).
T2 construct: ARBL/ARBC Whole Cell 5-Lipoxygenase and Cyclooxygenase Assays; endogenous in cells; host or cells: RBL-1 rat basophilic leukemia cells (American Type Culture Collection)
T2 sequence (P12527 1-673): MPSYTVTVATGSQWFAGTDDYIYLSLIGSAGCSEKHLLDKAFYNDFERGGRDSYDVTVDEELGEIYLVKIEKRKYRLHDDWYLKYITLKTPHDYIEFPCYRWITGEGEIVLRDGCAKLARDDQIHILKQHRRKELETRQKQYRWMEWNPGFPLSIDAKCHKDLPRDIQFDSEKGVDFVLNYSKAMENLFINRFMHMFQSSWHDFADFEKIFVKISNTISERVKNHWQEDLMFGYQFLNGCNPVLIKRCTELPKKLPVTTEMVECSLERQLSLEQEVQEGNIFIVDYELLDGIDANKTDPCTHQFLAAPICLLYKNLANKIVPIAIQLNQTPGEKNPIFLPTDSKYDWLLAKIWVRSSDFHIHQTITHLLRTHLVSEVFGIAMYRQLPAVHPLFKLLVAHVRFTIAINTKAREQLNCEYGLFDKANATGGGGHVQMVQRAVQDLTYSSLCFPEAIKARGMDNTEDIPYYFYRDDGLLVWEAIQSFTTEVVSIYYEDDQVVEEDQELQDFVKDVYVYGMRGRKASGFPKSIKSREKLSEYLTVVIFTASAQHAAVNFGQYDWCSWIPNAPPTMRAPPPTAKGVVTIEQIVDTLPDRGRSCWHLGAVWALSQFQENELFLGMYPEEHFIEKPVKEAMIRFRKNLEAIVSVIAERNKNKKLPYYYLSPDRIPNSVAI
Kind of experiment: ARBL Whole Cell 5-Lipoxygenase Assay in RBL-1 cells (LTB4 RIA). It counts as cell-based. Conditions: RBL-1 intact cell 5-lipoxygenase; A23187 5 μM. The procedure:
ARBL/ARBC Whole Cell 5-Lipoxygenase and Cyclooxygenase Assays
The rat basophilic leukemia cell line (RBL-1) was obtained from the American Type Culture Collection (Rockville, Md.).
Radioimmuno assay (RIA) kits of LTB4 and PGF2α were obtained from Amersham (Arlington Heights, Ill.) and Seragen (Boston, Mass.) respectively.
All tissue culture media were obtained from GIBO (Gran Island, N.Y.).
RBL-1 cells were grown in culture (suspension) in Eagle's minimum essential medium supplemented with 12% fetal bovine serum and 1:100 antibiotic-antimycotic mixture at 37° C. in an incubator supplied with air-5% carbon dioxide. Cells were harvested by centrifugation. They were washed with cold phosphate buffered saline pH 7.4 (PBS; NaCl, 7.1 g; Na2 HOP4, 1.15 g; KH2 PO4, 0.2 g; and KCl, 0.2 g/L). […] Calcium ionophore A23187 (5 μM) was added and cells were incubated for seven minutes at 37° C. The reaction was stopped by chilling the tubes in ice for ten minutes. Cells were separated by centrifugation and the supernatant was stored at -20°. Aliquots (100 μl) were analyzed for LTB4 and PGF2α using radioimmuno assay kits as provided by the supplier.

Take `COc1cc(C=Cc2cc(C=Cc3ccc(O)c(OC)c3)[nH]n2)ccc1O` [Example 1, 3,5-Bis[β-(4'-hydroxy-3'-methoxyphenyl)ethenyl]pyrazole]: the IC50 against cyclooxygenase amounted to 66 µM; at 5-lipoxygenase, 1.6 µM.

Take `COc1cc(C=Cc2cc(C)n[nH]2)ccc1O` [Example 5, 3-[β-(4'-Hydroxy-3'-methoxyphenyl)ethenyl]-5-methylpyrazole]: the 50% inhibitory concentration (IC50) against cyclooxygenase amounted to 33 µM; against 5-lipoxygenase it was 0.8 µM.

Turning to `Cc1cc(C=Cc2ccc(O)c(Cl)c2)n[nH]1` [Example 7, 3-[β-(4'-Hydroxy-3'-chlorophenyl)ethenyl]-5-methylpyrazole], the IC50 at cyclooxygenase is 34 µM; against 5-lipoxygenase it was 9.5 µM.
